Laboratory results published in PubChem BioAssay AID330 (DTP/NCI, 2004).
Values joined by “and” are separate entries in the source; they are usually repeats but may differ in a detail not shown here. Equal values may be shown once. Toxic doses and inconclusive results are not listed. Rule for the calls: active = survival T/C of 150% or more; inactive = T/C below 125% in these data.

Test system: P388 leukemia ip, CD2F1 mice, survival T/C
Experiment: NCI In Vivo Anticancer Drug Screen. Data for tumor model P388 Leukemia (intraperitoneal) in CD2F1 (CDF1) mice
Settings: endpoint: median survival time, higher = longer survival
Method in brief: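 Mice carrying the transplanted tumor received test compound or vehicle. Survival was recorded in each group, and the value is the treated-group measurement divided by that of the vehicle-treated control group.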

[1] = dose: 50.0 mg/kg/injection, schedule: Q01DX005 (ip), vehicle: Klucel (hydroxypropylcellulose) (HPC)
[2] = dose: 100.0 mg/kg/injection, schedule: Q01DX005 (ip), vehicle: Klucel (hydroxypropylcellulose) (HPC)
[3] = dose: 200.0 mg/kg/injection, schedule: Q01DX005 (ip), vehicle: Klucel (hydroxypropylcellulose) (HPC)
[4] = dose: 15.0 mg/kg/injection, schedule: Q01DX005 (ip), vehicle: saline with Tween-80
[5] = dose: 30.0 mg/kg/injection, schedule: Q01DX005 (ip), vehicle: saline with Tween-80
[6] = dose: 60.0 mg/kg/injection, schedule: Q01DX005 (ip), vehicle: saline with Tween-80
[7] = dose: 120.0 mg/kg/injection, schedule: Q01DX005 (ip), vehicle: saline with Tween-80
[8] = dose: 240.0 mg/kg/injection, schedule: Q01DX005 (ip), vehicle: saline with Tween-80
[9] = dose: 50.0 mg/kg/injection, schedule: Q01DX009 (ip), vehicle: saline
[10] = dose: 100.0 mg/kg/injection, schedule: Q01DX009 (ip), vehicle: saline
[11] = dose: 200.0 mg/kg/injection, schedule: Q01DX009 (ip), vehicle: saline
[12] = dose: 50.0 mg/kg/injection, schedule: Q01DX009 (ip), vehicle: saline with Tween-80
[13] = dose: 100.0 mg/kg/injection, schedule: Q01DX009 (ip), vehicle: saline with Tween-80
[14] = dose: 200.0 mg/kg/injection, schedule: Q01DX009 (ip), vehicle: saline with Tween-80
[15] = dose: 100.0 mg/kg/injection, schedule: Q04DX003 (ip), vehicle: saline with Tween-80
[16] = dose: 60.0 mg/kg/injection, schedule: Q01DX005 (ip), vehicle: Klucel (hydroxypropylcellulose) (HPC)
[17] = dose: 120.0 mg/kg/injection, schedule: Q01DX005 (ip), vehicle: Klucel (hydroxypropylcellulose) (HPC)
[18] = dose: 50.0 mg/kg/injection, schedule: Q01DX009 (ip), vehicle: Klucel (hydroxypropylcellulose) (HPC)
[19] = dose: 100.0 mg/kg/injection, schedule: Q01DX009 (ip), vehicle: Klucel (hydroxypropylcellulose) (HPC)
[20] = dose: 200.0 mg/kg/injection, schedule: Q01DX009 (ip), vehicle: Klucel (hydroxypropylcellulose) (HPC)
[21] = dose: 50.0 mg/kg/injection, schedule: Q01DX005 (ip), vehicle: saline with Tween-80
[22] = dose: 100.0 mg/kg/injection, schedule: Q01DX005 (ip), vehicle: saline with Tween-80
[23] = dose: 200.0 mg/kg/injection, schedule: Q01DX005 (ip), vehicle: saline with Tween-80

Measured: T/C

CN1C(=O)CN(CN2CCOCC2)C1=O
inactive: [1] 106 % of control | [2] 115 % of control | [3] 117 % of control

COc1cc(C(C)c2cc3c(cc2O)OCO3)cc(OC)c1OC (stereo unspecified)
inactive: [4] 100 % of control | [5] 98 % of control | [6] 103 % of control and 107 % of control and 108 % of control | [7] 100 % of control and 114 % of control and 122 % of control | [8] 123 % of control | dose: 480.0 mg/kg/injection, schedule: Q01DX005 (ip), vehicle: saline with Tween-80 86 % of control

CC(=O)C1=CN(Cc2ccccc2)C=C(C)C1
inactive: [9] 99 % of control | [10] 96 % of control | [11] 96 % of control

CN(C)c1ccc(C=Nc2ccc(OCCCCCCCCCCC(=O)O)cc2)cc1
inactive: [12] 93 % of control | [13] 88 % of control | [14] 90 % of control

CC(=O)Oc1cccc(C#N)c1
inactive: [15] 100 % of control | dose: 200.0 mg/kg/injection, schedule: Q04DX003 (ip), vehicle: saline with Tween-80 100 % of control | dose: 400.0 mg/kg/injection, schedule: Q04DX003 (ip), vehicle: saline with Tween-80 104 % of control

CN(C)/C=C1\C(C(C)(C)C)=CC(C(C)(C)C)=C1N=O
inactive: [16] 105 % of control | [17] 104 % of control

O=C(c1ccc([N+](=O)[O-])cc1)N1CCCSC1=S
inactive: [6] 107 % of control | [7] 98 % of control | [8] 101 % of control

Clc1ccc(-c2cc3cc4c(cc3[nH]2)Oc2ccccc2O4)cc1
inactive: dose: 17.5 mg/kg/injection, schedule: Q01DX009 (ip), vehicle: Klucel (hydroxypropylcellulose) (HPC) 107 % of control | dose: 35.0 mg/kg/injection, schedule: Q01DX009 (ip), vehicle: Klucel (hydroxypropylcellulose) (HPC) 103 % of control | dose: 70.0 mg/kg/injection, schedule: Q01DX009 (ip), vehicle: Klucel (hydroxypropylcellulose) (HPC) 103 % of control

c1cc(NNc2cccc(-c3nn[nH]n3)c2)cc(-c2nn[nH]n2)c1
inactive: [18] 95 % of control | [19] 117 % of control | [20] 113 % of control

O=C1NC(O)c2cccc([N+](=O)[O-])c2O1 (stereo unspecified)
inactive: [21] 100 % of control | [22] 105 % of control | [23] 110 % of control

O=C(O)c1nn(Cc2ccc(Br)cc2Br)c2ccccc12
inactive: dose: 100.0 mg/kg/injection, schedule: Q01DX001 (ip), vehicle: saline with Tween-80 114 % of control | dose: 200.0 mg/kg/injection, schedule: Q01DX001 (ip), vehicle: saline with Tween-80 104 % of control | dose: 400.0 mg/kg/injection, schedule: Q01DX001 (ip), vehicle: saline with Tween-80 114 % of control

Cc1oc(NC(=O)C(=O)O)c(C#N)c1C
inactive: [12] 88 % of control | [13] 102 % of control | [14] 88 % of control

CSCc1cc(CO)no1
inactive: [6] 100 % of control | [7] 99 % of control | [8] 106 % of control

CCC(=O)OCCN(CCOC(=O)CC)C(=O)C(C)OC(=O)CC (stereo unspecified)
inactive: dose: 25.0 mg/kg/injection, schedule: Q01DX005 (ip), vehicle: saline 105 % of control | dose: 50.0 mg/kg/injection, schedule: Q01DX005 (ip), vehicle: saline 110 % of control | dose: 100.0 mg/kg/injection, schedule: Q01DX005 (ip), vehicle: saline 105 % of control | dose: 200.0 mg/kg/injection, schedule: Q01DX005 (ip), vehicle: saline 110 % of control

O=C1NCCCN1C(=O)Nc1ccc(Cl)c(Cl)c1
inactive: [18] 101 % of control | [19] 91 % of control | [20] 95 % of control

COC(=O)CC1(O)C=C(C)C(=O)c2ccccc21 (stereo unspecified)
inactive: dose: 25.0 mg/kg/injection, schedule: Q01DX005 (ip), vehicle: saline with Tween-80 100 % of control | [21] 101 % of control | [22] 100 % of control | [23] 100 % of control | dose: 400.0 mg/kg/injection, schedule: Q01DX005 (ip), vehicle: saline with Tween-80 101 % of control

O=C(Nc1ccc2cc(S(=O)(=O)O)ccc2c1)c1ccc(N=Nc2c(S(=O)(=O)O)cc3cc(S(=O)(=O)O)cc(NC(=O)c4ccccc4)c3c2O)cc1
inactive: dose: 25.0 mg/kg/injection, schedule: Q01DX009 (ip), vehicle: saline with Tween-80 108 % of control | dose: 25.0 mg/kg/injection, schedule: Q04DX003 (ip), vehicle: saline with Tween-80 91 % of control | [12] 108 % of control | dose: 50.0 mg/kg/injection, schedule: Q04DX003 (ip), vehicle: saline with Tween-80 87 % of control | [13] 87 % of control | [15] 95 % of control

ClCCCSSCCCCl
inactive: [5] 107 % of control | [6] 110 % of control

CCCCC1=C(O)c2ccccc2C(=NC(CO)(CO)CO)C1=O
inactive: [21] 103 % of control | [22] 110 % of control | [23] 100 % of control

Cc1ccc(S(=O)(=O)C(Cl)(SCl)Sc2ccccc2)cc1 (stereo unspecified)
inactive: [18] 95 % of control | [19] 93 % of control | [20] 93 % of control

O=C(Cn1ccnc1[N+](=O)[O-])NCCO
inactive: dose: 12.5 mg/kg/injection, schedule: Q01DX009 (ip), vehicle: water 113 % of control | dose: 25.0 mg/kg/injection, schedule: Q01DX009 (ip), vehicle: water 105 % of control | dose: 50.0 mg/kg/injection, schedule: Q01DX009 (ip), vehicle: water 101 % of control | dose: 100.0 mg/kg/injection, schedule: Q01DX009 (ip), vehicle: water 105 % of control | dose: 200.0 mg/kg/injection, schedule: Q01DX009 (ip), vehicle: water 114 % of control

O=C(O)CCCCCCCCCCCCCCC1C=CCC1 (stereo unspecified)
inactive: dose: 100.0 mg/kg/injection, schedule: Q01DX001 (ip), vehicle: saline 101 % of control | dose: 200.0 mg/kg/injection, schedule: Q01DX001 (ip), vehicle: saline 100 % of control | dose: 400.0 mg/kg/injection, schedule: Q01DX001 (ip), vehicle: saline 98 % of control

Cc1nc2c(cnn2C)c(=O)n1-c1ccccc1Cl
inactive: [1] 103 % of control | [2] 95 % of control | [3] 98 % of control

C[CH2][Ge]([CH2]C)[CH2]C.C[CH2][Ge]([CH2]C)[O]C(C)=O
inactive: [9] 95 % of control | [10] 98 % of control | [11] 96 % of control

O=P(CCCCBr)(NCc1ccccc1)c1ccccc1 (stereo unspecified)
inactive: dose: 100.0 mg/kg/injection, schedule: Q04DX003 (ip), vehicle: Klucel (hydroxypropylcellulose) (HPC) 105 % of control | dose: 200.0 mg/kg/injection, schedule: Q04DX003 (ip), vehicle: Klucel (hydroxypropylcellulose) (HPC) 117 % of control

Cc1ccc(C)c2c(Nc3ccc4c(c3)OCO4)c(C(=O)O)cnc12
inactive: dose: 60.0 mg/kg/injection, schedule: Q01DX005 (ip), vehicle: Klucel + Tween-80 95 % of control | dose: 120.0 mg/kg/injection, schedule: Q01DX005 (ip), vehicle: Klucel + Tween-80 93 % of control

CSc1c(N(C)C)c(=O)c1=S
inactive: [4] 99 % of control | [5] 108 % of control | [6] 107 % of control

Nc1ccc(C2=Cc3ccc(N)cc3S2(=O)=O)cc1
inactive: dose: 100.0 mg/kg/injection, schedule: Q04DX002 (ip), vehicle: saline 99 % of control | dose: 200.0 mg/kg/injection, schedule: Q04DX002 (ip), vehicle: saline 99 % of control | dose: 400.0 mg/kg/injection, schedule: Q04DX002 (ip), vehicle: saline 101 % of control

CCC(C)N=Cc1ccco1 (stereo unspecified)
inactive: dose: 25.0 mg/kg/injection, schedule: Q01DX005 (ip), vehicle: Klucel (hydroxypropylcellulose) (HPC) 101 % of control | [1] 104 % of control | [2] 90 % of control | [3] 99 % of control

Nc1nc(Cc2ccccc2)cc(-c2cc(Cc3ccccc3)nc(N)n2)n1
inactive: [16] 90 % of control | [17] 95 % of control | dose: 240.0 mg/kg/injection, schedule: Q01DX005 (ip), vehicle: Klucel (hydroxypropylcellulose) (HPC) 97 % of control

O=C1c2cc3c(cc2C(=O)c2[nH]c(=O)ccc21)CCCC3
inactive: [21] 100 % of control | [22] 88 % of control | [23] 101 % of control
